This is an account of results in ChEMBL document CHEMBL5465560, “Selectivity Literature for EUbOPEN Chemogenomic Library” (2024).

Test [1] concerns the target 5'-AMP-activated protein kinase catalytic subunit alpha-1 (Homo sapiens, UniProt Q13131). The test is described as follows: Selectivity interaction (KinomeScan (DiscoverX)) EUB0000666a PRKAA1. Particulars: at 10 µM.
In test [2] the target is T1, Histone-lysine N-methyltransferase EHMT1 (Homo sapiens) (UniProt Q9H9B1).
T1 sequence (whole entry): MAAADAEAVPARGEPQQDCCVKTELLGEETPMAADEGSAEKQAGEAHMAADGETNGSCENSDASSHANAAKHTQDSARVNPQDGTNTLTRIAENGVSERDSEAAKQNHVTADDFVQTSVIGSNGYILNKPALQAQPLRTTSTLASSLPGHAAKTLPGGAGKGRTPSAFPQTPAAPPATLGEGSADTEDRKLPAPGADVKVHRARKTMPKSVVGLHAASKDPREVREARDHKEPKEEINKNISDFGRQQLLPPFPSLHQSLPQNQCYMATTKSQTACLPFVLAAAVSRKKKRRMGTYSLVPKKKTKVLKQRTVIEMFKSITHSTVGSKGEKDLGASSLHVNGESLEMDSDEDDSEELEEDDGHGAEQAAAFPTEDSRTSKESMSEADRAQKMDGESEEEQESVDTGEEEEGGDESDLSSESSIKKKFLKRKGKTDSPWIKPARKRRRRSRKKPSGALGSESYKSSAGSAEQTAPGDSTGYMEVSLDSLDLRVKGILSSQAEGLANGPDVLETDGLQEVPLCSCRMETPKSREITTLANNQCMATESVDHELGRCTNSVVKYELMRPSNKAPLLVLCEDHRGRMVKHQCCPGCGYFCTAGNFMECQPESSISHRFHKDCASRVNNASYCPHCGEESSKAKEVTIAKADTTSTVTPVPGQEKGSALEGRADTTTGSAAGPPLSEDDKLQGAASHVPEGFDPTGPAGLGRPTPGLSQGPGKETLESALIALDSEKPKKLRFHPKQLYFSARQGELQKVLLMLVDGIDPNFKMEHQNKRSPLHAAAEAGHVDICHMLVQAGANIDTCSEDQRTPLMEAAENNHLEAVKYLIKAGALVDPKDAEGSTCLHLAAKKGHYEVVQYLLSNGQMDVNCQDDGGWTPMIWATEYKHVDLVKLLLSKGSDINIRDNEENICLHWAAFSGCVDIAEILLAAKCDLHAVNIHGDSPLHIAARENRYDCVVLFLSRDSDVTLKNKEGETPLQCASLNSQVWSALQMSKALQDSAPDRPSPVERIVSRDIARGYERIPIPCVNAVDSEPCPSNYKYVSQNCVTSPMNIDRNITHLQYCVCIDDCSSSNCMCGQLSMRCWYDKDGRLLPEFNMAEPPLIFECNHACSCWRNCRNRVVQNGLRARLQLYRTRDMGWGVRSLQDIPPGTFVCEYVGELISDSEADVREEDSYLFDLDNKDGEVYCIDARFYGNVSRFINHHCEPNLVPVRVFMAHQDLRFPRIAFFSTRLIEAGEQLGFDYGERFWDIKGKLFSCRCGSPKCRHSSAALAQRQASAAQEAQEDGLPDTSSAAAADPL
Particulars: at 1 µM.

In test [3] the target is Phosphatidylinositol 4-kinase alpha (Homo sapiens, UniProt P42356). The test is described as follows: Selectivity interaction (Kinase panel (literature)) EUB0001199aCl PI4KA. The conditions noted are these: at 1 µM.
Sequence of Phosphatidylinositol 4-kinase alpha (P42356 whole entry, looked up): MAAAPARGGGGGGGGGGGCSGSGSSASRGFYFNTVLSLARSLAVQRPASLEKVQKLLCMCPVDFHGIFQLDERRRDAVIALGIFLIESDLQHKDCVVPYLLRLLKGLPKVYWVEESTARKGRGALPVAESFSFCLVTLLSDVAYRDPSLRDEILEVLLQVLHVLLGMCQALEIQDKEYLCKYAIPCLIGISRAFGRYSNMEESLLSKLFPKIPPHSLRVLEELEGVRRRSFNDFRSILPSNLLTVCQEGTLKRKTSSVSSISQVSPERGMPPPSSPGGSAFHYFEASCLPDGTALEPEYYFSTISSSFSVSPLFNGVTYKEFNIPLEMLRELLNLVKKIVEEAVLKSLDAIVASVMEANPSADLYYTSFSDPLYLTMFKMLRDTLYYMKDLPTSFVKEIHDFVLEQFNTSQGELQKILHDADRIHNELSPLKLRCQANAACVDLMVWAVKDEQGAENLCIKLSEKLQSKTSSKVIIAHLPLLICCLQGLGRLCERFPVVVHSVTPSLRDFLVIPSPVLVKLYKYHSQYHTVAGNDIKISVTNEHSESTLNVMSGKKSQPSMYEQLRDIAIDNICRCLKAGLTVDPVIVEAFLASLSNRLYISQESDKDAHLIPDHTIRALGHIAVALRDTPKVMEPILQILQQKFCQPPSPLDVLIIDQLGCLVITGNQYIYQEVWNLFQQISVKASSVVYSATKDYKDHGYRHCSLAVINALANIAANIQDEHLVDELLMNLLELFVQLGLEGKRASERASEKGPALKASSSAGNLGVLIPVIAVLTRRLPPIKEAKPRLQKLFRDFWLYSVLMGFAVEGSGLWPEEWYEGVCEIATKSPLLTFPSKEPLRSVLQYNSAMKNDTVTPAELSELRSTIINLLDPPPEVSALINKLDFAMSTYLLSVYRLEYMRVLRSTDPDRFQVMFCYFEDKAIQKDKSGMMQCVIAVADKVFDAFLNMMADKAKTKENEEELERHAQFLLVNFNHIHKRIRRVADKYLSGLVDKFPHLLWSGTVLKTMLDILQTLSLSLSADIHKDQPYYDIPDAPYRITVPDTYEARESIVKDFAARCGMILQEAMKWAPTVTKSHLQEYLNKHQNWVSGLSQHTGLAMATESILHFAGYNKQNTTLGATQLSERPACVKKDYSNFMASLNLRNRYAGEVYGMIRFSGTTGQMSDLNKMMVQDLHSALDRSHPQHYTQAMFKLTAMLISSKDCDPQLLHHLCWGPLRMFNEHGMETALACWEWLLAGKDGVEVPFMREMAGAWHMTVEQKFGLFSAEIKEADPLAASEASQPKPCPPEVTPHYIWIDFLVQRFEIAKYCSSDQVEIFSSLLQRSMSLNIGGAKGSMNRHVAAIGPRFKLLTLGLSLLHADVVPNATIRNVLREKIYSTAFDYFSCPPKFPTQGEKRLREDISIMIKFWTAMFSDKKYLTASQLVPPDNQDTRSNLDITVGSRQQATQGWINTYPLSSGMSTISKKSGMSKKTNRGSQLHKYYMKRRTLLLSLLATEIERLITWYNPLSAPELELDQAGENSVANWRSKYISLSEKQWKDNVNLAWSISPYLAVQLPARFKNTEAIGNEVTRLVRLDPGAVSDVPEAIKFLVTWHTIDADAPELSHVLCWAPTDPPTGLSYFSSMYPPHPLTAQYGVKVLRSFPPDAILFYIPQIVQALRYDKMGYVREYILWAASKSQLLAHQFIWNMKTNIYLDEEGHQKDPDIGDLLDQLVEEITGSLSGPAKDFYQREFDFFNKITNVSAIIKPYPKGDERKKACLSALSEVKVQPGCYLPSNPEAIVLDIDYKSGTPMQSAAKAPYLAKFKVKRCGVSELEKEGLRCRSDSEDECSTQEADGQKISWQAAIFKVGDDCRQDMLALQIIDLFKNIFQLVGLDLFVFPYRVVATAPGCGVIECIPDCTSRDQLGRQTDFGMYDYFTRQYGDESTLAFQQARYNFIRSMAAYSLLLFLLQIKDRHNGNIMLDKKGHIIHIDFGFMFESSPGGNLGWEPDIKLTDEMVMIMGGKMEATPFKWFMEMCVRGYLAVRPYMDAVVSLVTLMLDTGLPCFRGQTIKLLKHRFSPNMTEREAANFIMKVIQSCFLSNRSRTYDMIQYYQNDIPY
The target in test [4] is Insulin receptor-related protein (Homo sapiens) (UniProt P14616). The test is described as follows: Selectivity interaction (Kinase panel (Invitrogen)) EUB0000639a INSRR. The conditions noted are these: at 200 nM.
Sequence of Insulin receptor-related protein (Homo sapiens) (P14616 27-742 limits assumed): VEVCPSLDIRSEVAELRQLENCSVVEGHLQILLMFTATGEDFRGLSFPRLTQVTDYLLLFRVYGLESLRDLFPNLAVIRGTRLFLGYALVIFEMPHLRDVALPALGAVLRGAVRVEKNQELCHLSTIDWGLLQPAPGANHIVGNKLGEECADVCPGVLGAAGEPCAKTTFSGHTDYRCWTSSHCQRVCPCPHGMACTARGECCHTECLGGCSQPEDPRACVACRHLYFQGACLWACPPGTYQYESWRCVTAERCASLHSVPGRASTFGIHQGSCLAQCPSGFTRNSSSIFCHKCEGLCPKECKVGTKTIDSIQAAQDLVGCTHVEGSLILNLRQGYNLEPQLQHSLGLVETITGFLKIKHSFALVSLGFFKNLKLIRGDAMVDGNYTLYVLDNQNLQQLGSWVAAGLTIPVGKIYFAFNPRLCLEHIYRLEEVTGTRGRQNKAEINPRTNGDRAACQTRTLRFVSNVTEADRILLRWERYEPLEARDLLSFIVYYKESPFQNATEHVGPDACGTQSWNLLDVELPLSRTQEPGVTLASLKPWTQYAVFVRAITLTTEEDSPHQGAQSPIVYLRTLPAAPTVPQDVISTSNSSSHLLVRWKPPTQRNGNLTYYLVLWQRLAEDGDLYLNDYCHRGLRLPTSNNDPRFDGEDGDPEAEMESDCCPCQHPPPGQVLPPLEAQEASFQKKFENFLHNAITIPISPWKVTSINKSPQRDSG
Sequence of Insulin receptor-related protein (Homo sapiens) (P14616 747-1297 limits assumed): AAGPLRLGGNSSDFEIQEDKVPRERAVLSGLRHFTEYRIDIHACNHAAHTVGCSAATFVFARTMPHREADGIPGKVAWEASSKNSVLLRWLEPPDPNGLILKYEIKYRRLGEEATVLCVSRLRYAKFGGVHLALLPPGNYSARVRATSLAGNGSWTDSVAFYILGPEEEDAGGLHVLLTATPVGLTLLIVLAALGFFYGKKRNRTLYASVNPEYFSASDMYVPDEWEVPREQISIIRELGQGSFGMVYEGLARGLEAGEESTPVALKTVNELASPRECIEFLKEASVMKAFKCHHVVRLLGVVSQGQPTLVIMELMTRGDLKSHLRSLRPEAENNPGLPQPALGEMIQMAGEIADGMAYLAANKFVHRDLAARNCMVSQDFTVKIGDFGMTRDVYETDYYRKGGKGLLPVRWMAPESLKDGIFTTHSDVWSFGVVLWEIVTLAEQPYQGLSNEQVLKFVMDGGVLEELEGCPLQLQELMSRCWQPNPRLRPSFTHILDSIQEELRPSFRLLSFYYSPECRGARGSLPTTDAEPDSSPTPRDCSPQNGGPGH
For test [5], the target named is T2, Serine/threonine-protein kinase Nek9 (Homo sapiens) (UniProt Q8TD19).
T2 sequence (whole entry): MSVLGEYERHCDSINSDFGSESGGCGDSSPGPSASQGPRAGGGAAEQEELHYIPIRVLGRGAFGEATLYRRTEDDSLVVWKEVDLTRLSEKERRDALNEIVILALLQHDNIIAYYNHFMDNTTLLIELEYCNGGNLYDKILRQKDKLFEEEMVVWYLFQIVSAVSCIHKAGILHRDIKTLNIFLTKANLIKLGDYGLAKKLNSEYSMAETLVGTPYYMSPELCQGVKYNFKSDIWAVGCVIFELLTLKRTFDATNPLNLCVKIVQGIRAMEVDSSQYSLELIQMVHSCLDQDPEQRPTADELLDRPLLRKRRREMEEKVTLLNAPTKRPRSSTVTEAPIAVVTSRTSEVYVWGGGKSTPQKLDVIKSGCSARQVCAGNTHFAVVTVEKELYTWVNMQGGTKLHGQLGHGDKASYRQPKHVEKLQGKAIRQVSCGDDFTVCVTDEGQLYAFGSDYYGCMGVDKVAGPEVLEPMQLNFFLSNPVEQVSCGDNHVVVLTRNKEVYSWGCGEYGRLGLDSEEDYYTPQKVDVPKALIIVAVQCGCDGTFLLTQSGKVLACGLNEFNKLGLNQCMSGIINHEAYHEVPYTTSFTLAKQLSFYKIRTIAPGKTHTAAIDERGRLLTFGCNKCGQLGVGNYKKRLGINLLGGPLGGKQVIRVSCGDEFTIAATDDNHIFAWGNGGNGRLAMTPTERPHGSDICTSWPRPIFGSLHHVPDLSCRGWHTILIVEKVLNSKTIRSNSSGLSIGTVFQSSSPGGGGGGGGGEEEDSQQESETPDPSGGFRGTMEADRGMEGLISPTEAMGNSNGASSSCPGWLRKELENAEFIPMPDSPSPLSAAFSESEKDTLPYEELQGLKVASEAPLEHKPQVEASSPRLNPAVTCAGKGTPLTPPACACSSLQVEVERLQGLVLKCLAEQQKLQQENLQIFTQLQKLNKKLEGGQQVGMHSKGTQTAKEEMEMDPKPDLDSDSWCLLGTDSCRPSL
The experiment in a line: Selectivity interaction (ActivX KiNativ screen (kinase selectivity in THP-1 cell lysates)) EUB0000639a NEK9. Format: subcellular. The conditions noted are these: lysate, at 0.2 µM.

Test [6] addresses Serine/threonine-protein kinase PAK 3 (Homo sapiens) (UniProt O75914). The conditions noted are these: at 10 µM.
The target in test [7] is Wee1-like protein kinase (Homo sapiens) (UniProt P30291). The test is described as follows: Selectivity interaction (KinomeScan (DiscoverX)) EUB0000618a WEE1. Particulars: at 10 µM.

Sequence of Serine/threonine-protein kinase PAK 3 (Homo sapiens) (O75914 whole entry, looked up): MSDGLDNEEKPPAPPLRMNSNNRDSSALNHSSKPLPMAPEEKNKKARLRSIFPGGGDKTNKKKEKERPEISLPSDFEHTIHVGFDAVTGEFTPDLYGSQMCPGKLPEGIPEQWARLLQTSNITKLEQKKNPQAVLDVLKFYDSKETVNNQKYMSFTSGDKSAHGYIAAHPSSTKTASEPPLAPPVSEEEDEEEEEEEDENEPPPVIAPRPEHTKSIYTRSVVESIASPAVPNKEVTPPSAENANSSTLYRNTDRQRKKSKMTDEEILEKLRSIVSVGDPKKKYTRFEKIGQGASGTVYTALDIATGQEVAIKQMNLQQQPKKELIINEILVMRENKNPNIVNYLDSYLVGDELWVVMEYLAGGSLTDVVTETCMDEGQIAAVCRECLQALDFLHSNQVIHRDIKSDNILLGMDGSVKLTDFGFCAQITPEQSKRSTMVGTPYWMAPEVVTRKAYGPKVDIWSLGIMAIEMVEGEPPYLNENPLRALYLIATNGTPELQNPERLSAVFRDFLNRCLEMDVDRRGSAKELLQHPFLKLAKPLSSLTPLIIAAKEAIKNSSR
Sequence of 5'-AMP-activated protein kinase catalytic subunit alpha-1 (Q13131 whole entry, looked up): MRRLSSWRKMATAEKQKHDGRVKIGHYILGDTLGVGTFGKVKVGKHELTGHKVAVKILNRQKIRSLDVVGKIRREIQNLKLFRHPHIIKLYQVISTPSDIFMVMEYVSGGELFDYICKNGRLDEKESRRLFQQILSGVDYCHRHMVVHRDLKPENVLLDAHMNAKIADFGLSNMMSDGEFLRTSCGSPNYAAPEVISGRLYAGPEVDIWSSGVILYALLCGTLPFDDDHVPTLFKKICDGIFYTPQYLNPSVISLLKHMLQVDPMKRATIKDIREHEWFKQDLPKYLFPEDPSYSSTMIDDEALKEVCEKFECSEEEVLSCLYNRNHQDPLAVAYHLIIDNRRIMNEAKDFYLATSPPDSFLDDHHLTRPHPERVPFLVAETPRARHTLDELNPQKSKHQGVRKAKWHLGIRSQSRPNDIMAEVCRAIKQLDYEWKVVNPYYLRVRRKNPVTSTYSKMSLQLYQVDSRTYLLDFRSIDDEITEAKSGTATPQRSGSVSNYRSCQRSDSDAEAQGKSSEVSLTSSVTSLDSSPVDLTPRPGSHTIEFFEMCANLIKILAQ

`O=C(NOC[C@H](O)CO)c1ccc(F)c(F)c1Nc1ccc(I)cc1F` had a % of control in test [1] of 100%. On to `CNCCN1CCC(c2cc(CN(C)C(=O)c3cccc(Oc4ccccc4)c3)ccn2)CC1`, for which the % activity in test [2] is more than 90%. For `CN1Cc2nccc(-c3cn(C)nc3-c3ccc(F)cc3)c2C1=O`, the % of inhibition in test [3] was -13%. In the case of `CC[C@@H]1[C@H](F)C(=O)N[C@@H]1COc1nccc2cc(C(N)=O)c(OC)cc12` [ZIMLOVISERTIB], the % of inhibition in test [4] worked out at 2.97%; in test [5] it was 8.3%. Compound `CCN(CC)CCCCNc1ncc2cc(-c3cc(OC)cc(OC)c3)c(NC(=O)NC(C)(C)C)nc2n1` registered a % of control in test [6] of 100%. Regarding `O[C@H]1CC[C@H](Nc2ncc3nc(Nc4c(F)cc(F)cc4F)n([C@H]4CCOC4)c3n2)CC1`, the % of control in test [7] is 100%.
